Patent US11040981B2, “Pyrrolotriazine compounds and methods of inhibiting TAM kinases” (Syros Pharmaceuticals, Inc., priority 2017, dated 2021)

Tests used:
[1] = target: T1, MERTK (Homo sapiens, UniProt Q12866); test: TR-FRET kinase activity assay, MERTK; assay type: biochemical; settings: for IC50: TR-FRET activity assay, ATP at Km, 60 minutes, read-out: Mer IC50
T1 sequence (Q12866 21-999): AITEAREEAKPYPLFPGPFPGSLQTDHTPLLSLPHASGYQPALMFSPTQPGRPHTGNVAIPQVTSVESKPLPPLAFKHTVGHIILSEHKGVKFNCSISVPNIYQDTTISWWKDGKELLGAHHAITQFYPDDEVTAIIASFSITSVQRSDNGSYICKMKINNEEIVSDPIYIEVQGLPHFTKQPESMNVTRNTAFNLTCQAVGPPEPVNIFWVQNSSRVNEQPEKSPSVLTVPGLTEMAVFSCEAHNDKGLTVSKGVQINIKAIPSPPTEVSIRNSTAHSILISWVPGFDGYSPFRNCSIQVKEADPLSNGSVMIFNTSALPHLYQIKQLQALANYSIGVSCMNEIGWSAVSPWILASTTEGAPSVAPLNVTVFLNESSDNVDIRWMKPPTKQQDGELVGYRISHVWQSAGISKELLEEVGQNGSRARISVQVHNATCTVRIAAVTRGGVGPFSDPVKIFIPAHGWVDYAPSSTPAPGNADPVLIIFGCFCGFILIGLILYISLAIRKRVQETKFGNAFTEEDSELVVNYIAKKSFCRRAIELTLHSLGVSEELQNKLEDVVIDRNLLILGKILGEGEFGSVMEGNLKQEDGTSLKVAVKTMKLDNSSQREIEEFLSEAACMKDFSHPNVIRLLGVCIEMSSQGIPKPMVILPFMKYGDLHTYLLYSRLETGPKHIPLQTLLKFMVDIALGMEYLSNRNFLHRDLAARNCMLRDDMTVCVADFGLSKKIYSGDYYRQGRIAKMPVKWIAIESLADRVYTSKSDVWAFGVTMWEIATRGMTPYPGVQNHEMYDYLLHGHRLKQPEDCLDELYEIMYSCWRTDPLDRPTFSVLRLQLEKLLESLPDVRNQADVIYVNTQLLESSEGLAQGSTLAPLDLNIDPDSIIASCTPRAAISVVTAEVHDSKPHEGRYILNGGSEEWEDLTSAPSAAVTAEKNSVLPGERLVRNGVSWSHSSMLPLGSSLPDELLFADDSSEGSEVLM
Method in brief: (§1)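 Recombinant human kinases, fluorescent peptide substrate, ATP at Km; 1 h RT, pH 7.5. EDTA-quenched, Eu antibody added, TR-FRET read; IC50 determined.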

[2] = target: T2, TYRO3 (Homo sapiens, UniProt Q06418); test: TR-FRET kinase activity assay, TYRO3; assay type: biochemical; settings: ATP at Km, 60 minutes
T2 sequence (Q06418 41-890): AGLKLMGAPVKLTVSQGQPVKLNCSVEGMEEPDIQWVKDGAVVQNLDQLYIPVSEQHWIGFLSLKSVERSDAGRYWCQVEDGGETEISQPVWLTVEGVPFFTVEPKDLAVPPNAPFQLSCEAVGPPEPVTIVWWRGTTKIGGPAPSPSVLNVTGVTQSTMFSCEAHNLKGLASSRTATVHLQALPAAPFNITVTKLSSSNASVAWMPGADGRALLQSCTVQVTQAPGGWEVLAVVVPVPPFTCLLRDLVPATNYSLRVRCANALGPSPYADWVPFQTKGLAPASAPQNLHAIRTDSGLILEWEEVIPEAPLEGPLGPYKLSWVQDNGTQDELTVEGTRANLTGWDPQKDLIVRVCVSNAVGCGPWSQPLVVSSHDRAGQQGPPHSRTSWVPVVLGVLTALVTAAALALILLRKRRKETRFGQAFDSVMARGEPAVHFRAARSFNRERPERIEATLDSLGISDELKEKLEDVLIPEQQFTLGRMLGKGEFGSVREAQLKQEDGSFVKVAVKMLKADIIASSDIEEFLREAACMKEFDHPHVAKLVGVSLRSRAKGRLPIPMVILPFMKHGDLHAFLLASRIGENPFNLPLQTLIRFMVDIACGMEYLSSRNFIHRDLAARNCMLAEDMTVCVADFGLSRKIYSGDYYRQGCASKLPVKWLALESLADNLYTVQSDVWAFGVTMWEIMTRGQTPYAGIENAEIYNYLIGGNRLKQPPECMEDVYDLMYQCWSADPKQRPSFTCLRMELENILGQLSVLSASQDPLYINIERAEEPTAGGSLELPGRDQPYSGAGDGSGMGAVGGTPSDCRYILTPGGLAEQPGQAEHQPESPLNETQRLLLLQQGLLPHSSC
Method in brief: as §1

[3] = ratio calculated as FLT3 IC50/Mer IC50
[4] = ratio of Mer to FLT3: FLT3 IC50/Mer IC50

| IC50 [1] | FLT3/Mer ratio (FLT3 IC50/Mer IC50) [1, 3] | IC50 [2] | FLT3/Mer ratio (FLT3 IC50/Mer IC50) [1, 4] | SMILES |
| --- | --- | --- | --- | --- |
| ≤ 100 nM | +++ (“+++” represents a ratio of >100) | ≤ 100 nM | – | COC[C@H](C)Nc1ncc2c(-c3cnn(C4COC4)c3)cc([C@H]3CC[C@](O)(C(C)C)CC3)n2n1 [Compound 617] |
| ≤ 100 nM | – | ≤ 100 nM | +++ (“+++” represents a ratio of >100) | CC(Nc1ncc2c(-c3ccc(CN4CCN(C)CC4)cc3)cc([C@H]3CC[C@H](O)CC3)n2n1)C(F)F (mixture of isomers) [Compound 148] |
| ≤ 100 nM | +++ (“+++” represents a ratio of >100) | ≤ 100 nM | – | COC[C@H](C)Nc1ncc2c(-c3cnn(C(C)(C)C(=O)N4CC(C)(O)C4)c3)cc([C@H]3CC[C@H](O)CC3)n2n1 [Compound 622] |
| ≤ 100 nM | +++ (“+++” represents a ratio of >100) | ≤ 100 nM | – | COC[C@H](C)Nc1ncc2c(-c3cnn(C(C)(C)C(=O)N4CCCC4)c3)cc([C@H]3CC[C@H](O)CC3)n2n1 [Compound 612] |
| ≤ 100 nM | – | ≤ 100 nM | +++ (“+++” represents a ratio of >100) | COC[C@H](C)Nc1ncc2c(-c3cnn(C)c3)cc([C@H]3CC[C@H](O)CC3)n2n1 [Compound 152] |
| ≤ 100 nM | +++ (“+++” represents a ratio of >100) | ≤ 100 nM | – | COC[C@H](C)Nc1ncc2c(-c3cnn(C(C)(C)C(=O)N4CCC(C)(O)C4)c3)cc([C@H]3CC[C@H](O)CC3)n2n1 (stereo partly drawn) [Compound 620] |
| ≤ 100 nM | +++ (“+++” represents a ratio of >100) | ≤ 100 nM | – | COC[C@H](C)Nc1ncc2c(-c3ccnc(N4CCC(C)(O)C4)c3)cc(C3CCC(O)CC3)n2n1 (stereo partly drawn) [Compound 633] |
| ≤ 100 nM | +++ (“+++” represents a ratio of >100) | ≤ 100 nM | – | COC[C@H](C)Nc1ncc2c(-c3cnn(C(C)(C)c4nnc(C(F)F)o4)c3)cc([C@H]3CC[C@H](O)CC3)n2n1 [Compound 599] |
| ≤ 100 nM | – | ≤ 100 nM | +++ (“+++” represents a ratio of >100) | CNC(=O)c1ccc(-c2cc([C@H]3CC[C@H](O)CC3)n3nc(N[C@@H](C)COC)ncc23)cn1 [Compound 147] |
| ≤ 100 nM | +++ (“+++” represents a ratio of >100) | ≤ 100 nM | – | COC[C@H](C)Nc1ncc2c(-c3cnn(C(C)(C)c4nnco4)c3)cc([C@H]3CC[C@H](O)CC3)n2n1 [Compound 604] |
| ≤ 100 nM | – | ≤ 100 nM | +++ (“+++” represents a ratio of >100) | COC[C@H](C)Nc1ncc2c(-c3ccc(C(=O)N4CCN(C)CC4)cc3)cc([C@H]3CC[C@H](O)CC3)n2n1 [Compound 144] |
| ≤ 100 nM | +++ (“+++” represents a ratio of >100) | ≤ 100 nM | – | COC[C@H](C)Nc1ncc2c(-c3cnn(C(C)(C)c4nnc(C)s4)c3)cc([C@H]3CC[C@H](O)CC3)n2n1 [Compound 625] |
| ≤ 100 nM | +++ (“+++” represents a ratio of >100) | ≤ 100 nM | – | COC[C@H](C)Nc1ncc2c(-c3ccnc(N4CC(C)(O)C4)c3)cc(C3CCC(O)CC3)n2n1 (stereo partly drawn) [Compound 632] |
| ≤ 100 nM | +++ (“+++” represents a ratio of >100) | ≤ 100 nM | – | C[C@@H](COC(F)F)Nc1ncc2c(-c3ccnc(N4CCOC(C(C)(C)O)C4)c3)cc([C@H]3CC[C@H](O)CC3)n2n1 (stereo partly drawn) [Compound 598] |
| ≤ 100 nM | – | ≤ 100 nM | +++ (“+++” represents a ratio of >100) | COC[C@H](C)Nc1ncc2c(-c3cnn(CC(C)C)c3)cc([C@H]3CC[C@H](O)CC3)n2n1 [Compound 167] |
| ≤ 100 nM | – | ≤ 100 nM | +++ (“+++” represents a ratio of >100) | COC[C@H](C)Nc1ncc2c(-c3cnn(CC(=O)O)c3)cc([C@H]3CC[C@H](O)CC3)n2n1 [Compound 160] |
| ≤ 100 nM | – | ≤ 100 nM | +++ (“+++” represents a ratio of >100) | COC[C@H](C)Nc1ncc2c(-c3ccc(CN4CCN(c5nccc(C)n5)CC4)cc3)cc([C@H]3CC[C@H](O)CC3)n2n1 [Compound 154, (trans)-4-(2-(((S)-1-methoxypropan-2-yl)amino)-5-(4-((4-(4-methylpyrimidin-2-yl)piperazin-1-yl)methyl)phenyl)pyrrolo[2,1-f][1,2,4]triazin-7-yl)cyclohexanol] |
| ≤ 100 nM | – | ≤ 100 nM | +++ (“+++” represents a ratio of >100) | COC[C@H](C)Nc1ncc2c(-c3cccc(CN4CCCC4)c3)cc([C@H]3CC[C@H](O)CC3)n2n1 [Compound 179] |

| SMILES | IC50 [1] | FLT3/Mer ratio (FLT3 IC50/Mer IC50) [1, 3] | IC50 [2] | FLT3/Mer ratio (FLT3 IC50/Mer IC50) [1, 4] |
| --- | --- | --- | --- | --- |
| COC[C@H](C)Nc1ncc2c(-c3ccc(CN4CCN(C(C)=O)CC4)cc3)cc([C@H]3CC[C@H](O)CC3)n2n1 [Compound 150] | ≤ 100 nM | – | ≤ 100 nM | ++ (“++” represents a ratio of between 10 and 100) |
| COCC(C)Nc1ncc2c(-c3ccc(C(C)N4CCCC4)cc3)cc(C3CCC(O)CC3)n2n1 (stereo not drawn) [Compound 164] | ≤ 100 nM | – | ≤ 100 nM | ++ (“++” represents a ratio of between 10 and 100) |
| COCC(C)Nc1ncc2c(-c3ccc(C(C)N4CCCC4)cc3)cc(C3CCC(O)CC3)n2n1 (stereo not drawn) [Compound 166] | ≤ 100 nM | – | ≤ 100 nM | ++ (“++” represents a ratio of between 10 and 100) |
| C[C@@H](CC(F)(F)F)Nc1ncc2c(-c3cnn(C(C)(C)C(=O)N4CCN(C)CC4)c3)cc(C3CCC(O)CC3)n2n1 (stereo partly drawn) [Compound 626] | ≤ 100 nM | ++ (“++” represents a ratio of between 10 and 100) | ≤ 100 nM | – |
| COC[C@H](C)N(C)c1ncc2c(-c3ccnc(C)c3)cc([C@H]3CC[C@H](OC)CC3)n2n1 [Compound 176, 7-((trans)-4-methoxycyclohexyl)-N-((S)-1-methoxypropan-2-yl)-N-methyl-5-(2-methylpyridin-4-yl)pyrrolo[2,1-f][1,2,4]triazin-2-amine] | 1000 to 10000 nM | – | 1000 to 10000 nM | + (“+” represents a ratio of >2.0 and <10) |
| COCC1(Nc2ncc3c(-c4ccc(CN5CCN(C)CC5)cc4)cc(C4CCC(O)CC4)n3n2)CC1 (stereo not drawn) [Compound 149] | ≤ 100 nM | – | ≤ 100 nM | ++ (“++” represents a ratio of between 10 and 100) |
| COC[C@H](C)Nc1ncc2c(-c3ccc([C@@H](C)N4CCOCC4)cc3)cc([C@H]3CC[C@H](O)CC3)n2n1 [Compound 156] | ≤ 100 nM | – | ≤ 100 nM | ++ (“++” represents a ratio of between 10 and 100) |
| COC[C@H](C)Nc1ncc2c(-c3ccc([C@H](C)N4CCOCC4)cc3)cc([C@H]3CC[C@H](O)CC3)n2n1 [Compound 157] | ≤ 100 nM | – | ≤ 100 nM | ++ (“++” represents a ratio of between 10 and 100) |
